Measurements from US20230241071A1, “COMBINATION TREATMENT OF LIVER DISORDERS” (Terns Pharmaceuticals, Inc., priority 2021, published 2023).
Where “and” joins values, the source holds several entries; their conditions need not be identical. Identical values can stand only once. Entries after “also recorded” stand apart in the source; their conditions may differ.

Columns and labels:
[1] = Trough plasma compound levels in DIO-GAN mice; type: in vivo, mouse; settings: plasma 21-24 h post final dose
Protocol: Terminal plasma samples were harvested by cardiac puncture approximately 21-24 hours after the last administration of compound(s). Terminal plasma samples were analyzed by high resolution LC-MS/MS using a Triple Quad 6500+ instrument. 20 μL of plasma sample was mixed with 200 μL of internal standard solution (100 ng/mL Labetalol+100 ng/mL Tolbutamide in acetonitrile), vortexed, and centrifuged at 4,000 rpm for 15 min at 4° C. […] The internal standard 1 (retention time: 0.87 min) and standard 2 (retention time: 0.96 min) were used for quantification of Compound 3 (retention time: 0.87 min) and Compound 2 (retention time: 0.97 min), respectively. The internal standard (retention time: 0.76 min), was used for quantification of the glucuronide metabolite of Compound 3 (retention time: 0.77 min). Calibration curves (1-3000 ng/mL) were generated in a matrix of mouse plasma (pooled vehicle control) for each analyte.

DIO-GAN NASH mouse model = assay: Biopsy-confirmed DIO-GAN NASH mice, 12 weeks mono- and combination treatment; type: in vivo; settings: for hepatomegaly (liver weight) / spleen weight / total cholesterol (plasma): vs DIO-GAN vehicle control; for plasma triglycerides: Compound 2-high 10 mg/kg, combinations; for α-SMA (IHC), marker of hepatic stellate cell activation: Compound 3, Compound 2-low and -med, Combo-low
Excerpt: C57BL/6JRj male mice (n=138) were fed the Gubra Amylin NASH (GAN) diet (40% fat, 22% fructose, 2% cholesterol [D09100310, Research Diets]) or lean chow diet for 35 weeks before treatment start. Prior to treatment all animals underwent liver biopsy for histological confirmation (steatosis score ≥2 and fibrosis stage ≥1) and stratification using the nonalcoholic fatty liver disease (NAFLD) activity scoring (NAS) and fibrosis staging system. The diet-induced obese mice on GAN diet (DIO-GAN) were randomized to 8 treatment groups […] based on percent-area of picrosirius red (PSR) staining. DIO-GAN mice (n=16 per group) received treatment (PO, QD) for 12 weeks with vehicle (0.5% HPMC+0.2% Tween-80 in Tris buffer [50 mM, pH 8]), Compound 3 (10 mg/kg), Compound 2 (0.3 mg/kg [low], 2 mg/kg [med], or 10 mg/kg [high]), or combination treatments of Compound 3 with Compound 2 (Combo-low, Combo-med or Combo-high). Vehicle-dosed lean chow-fed controls served as healthy controls (n=10). Mice were maintained on their respective diets (GAN or lean chow) for the duration of the study. Within-subject comparisons (pre- vs. post-treatment) were performed for liver biopsy histopathological scores. Terminal quantitative endpoints included plasma/liver biochemistry, liver histomorphometry, and liver transcriptomic analysis by RNAseq.
Formalin-fixed paraffin-embedded (FFPE) liver biopsies were prepared by placing liver samples into 10% neutral buffered formalin for ˜24 hours and then transferred to 70% ethanol prior to storage at 4 C. FFPE were placed in the Histokinette to infiltrate prior to embedding in blocks. Biopsy tissues were then cut at 3 μm using a microtome and sections were mounted on slides. Liver sections were stained with Hematoxylin and Eosin (H&E) to assess steatosis, inflammation, and ballooning, and PSR to assess fibrosis. Additionally, slides were processed to detect type I collagen (Col1a1), galectin-3 (Gal-3), and smooth muscle actin (α-SMA) protein expression by immunohistochemistry (IHC). For H&E staining, slides were incubated in Mayer's Hematoxylin (Dako), washed with tap water, stained in Eosin Y solution (Sigma-Aldrich), dehydrated, and coverslipped. For PSR, slides were incubated in Weigert's iron hematoxylin (Sigma-Aldrich), washed in tap water, stained in Picro-sirius red (Sigma-Aldrich), and washed twice in acidified water. Excess water was removed by shaking the slides and the slides were then dehydrated with ethanol, cleared in xylene, and cover-slipped. The NAS and fibrosis stage were scored as described previously (Kleiner et al. 2005). NAS represents the unweighted sum of steatosis, inflammation, and ballooning scores and ranges for 0-8 (Table 26); fibrosis stage ranges from 0 (no fibrosis) to 4 (cirrhosis). For detection of Col1a1, Gal-3 and α-SMA, IHC was performed by standard procedures. Briefly, after antigen retrieval and blocking of endogenous peroxidase activity, slides were incubated with primary antibody (Col1a1: Southern Biotech, Cat. 1310-01; Gal-3: Biolegend, Cat. 125402; α-SMA: Abcam Cat. Ab124964). Primary antibody was detected using a polymeric HRP-linker antibody conjugate. Primary antibody was visualized with DAB as chromogen. Finally, sections were counterstained in hematoxylin and cover-slipped.
Terminal blood was harvested by cardiac puncture from mice anesthetized with isoflurane (2-3%), mixed with anticoagulant, and placed at 4 C prior to centrifugation at 3000×g for 10 minutes. Plasma supernatants were transferred to new tubes and immediately frozen on dry ice and stored at −80 C. Alanine transaminase (ALT), Aspartate transaminase (AST), Alkaline phosphatase (ALP), Triglycerides (TGs), Total Cholesterol (TC), High-density lipoprotein (HDL-c), and Low-density lipoprotein (LDL-c) were measured using commercial kits (Roche Diagnostics) on the Cobas c 501 autoanalyzer according to manufacturer's instructions. […]

[2] = group Combo-high, Compound 3 10 mg/kg + Compound 2 10 mg/kg (14)
[3] = group Combo-med, Compound 3 10 mg/kg + Compound 2 2 mg/kg (16)
[4] = 12 wk PO QD, Compound 3 10 mg/kg
[5] = 12 wk PO QD, high: Compound 2 10 mg/kg, alone or (Combo) + Compound 3 10 mg/kg
[6] = 12 wk PO QD, high: Compound 2 10 mg/kg, alone or (Combo) + Compound 3 10 mg/kg, 10 mg/kg
[7] = 12 wk PO QD, low: Compound 2 0.3 mg/kg, alone or (Combo) + Compound 3 10 mg/kg
[8] = 12 wk PO QD, med: Compound 2 2 mg/kg, alone or (Combo) + Compound 3 10 mg/kg
[9] = 12 wk PO QD, single agent 10 mg/kg

## N#Cc1nn(-c2cc(Cl)c(Oc3n[nH]c(=O)c4ccccc34)c(Cl)c2)c(=O)[nH]c1=O [Compound 2, 2-(3,5-dichloro-4-((4-oxo-3,4-dihydrophthalazin-1-yl)oxy)phenyl)-3,5-dioxo-2,3,4,5-tetrahydro-1,2,4-triazine-6-carbonitrile]
[1]; [2]
  Mean trough analyte concentration (SD): 143.0 (87.9) ng/mL
[1]; [3]
  Mean trough analyte concentration (SD): 49.5 (42.9) ng/mL
[1]; group Compound 2-high 10 mg/kg (16)
  Mean trough analyte concentration (SD): 320.0 (189.9) ng/mL
[1]; group Compound 2-med 2 mg/kg (15)
  Mean trough analyte concentration (SD): 135.5 (62.0) ng/mL
DIO-GAN NASH mouse model; 12 wk PO QD
  hepatomegaly (liver weight): significantly reduced hepatomegaly
  spleen weight: without changes in spleen weight
  total cholesterol (plasma): significantly reduced total cholesterol
  α-SMA (IHC), marker of hepatic stellate cell activation: Numeric reductions
DIO-GAN NASH mouse model; 12 wk PO QD, Compound 2 low, med, and high
  ALT levels relative to DIO-GAN vehicle control: significantly reduced; also recorded: significantly lowered ALT levels
DIO-GAN NASH mouse model; [4]
  plasma triglycerides: significantly reduced plasma triglycerides
DIO-GAN NASH mouse model; [5]
  Histological steatosis score: mice improving 1-pt: 75%
  Histological steatosis score: mice with no change: 18.75%
  Liver fibrosis stage: mice improving: 6.25%
  Liver fibrosis stage: mice with no change: 68.75%
  Liver fibrosis stage: mice worsening: 25%
  Lobular inflammation: mice improving: 12.5%
  Lobular inflammation: mice with no change: 56.25%
  Lobular inflammation: mice worsening: 31.25%
  NAS: mice improving 1-pt: 37.5%
  NAS: mice with no change: 31.25%
  NAS: mice worsening ≥1-pt: 6.25%
DIO-GAN NASH mouse model; [6]
  Histological steatosis score: mice improving >2-pt: 6.25%
  Histological steatosis score: mice improving, Total (at least 1-pt): 81% and 81.25%
  NAS: mice improving ≥2-pt: 25%
  NAS: mice improving, Total (≥1-pt): 62% and 62.5%
DIO-GAN NASH mouse model; [7]
  Histological steatosis score: mice improving 1-pt: 25%
  Histological steatosis score: mice improving >2-pt: 6.25%
  Histological steatosis score: mice improving, Total (at least 1-pt): 31% and 31.25%
  Histological steatosis score: mice with no change: 68.75%
  Liver fibrosis stage: mice improving: 6.25%
  Liver fibrosis stage: mice with no change: 62.5%
  Liver fibrosis stage: mice worsening: 31.25%
  Lobular inflammation: mice improving: 6.25%
  Lobular inflammation: mice with no change: 68.75%
  Lobular inflammation: mice worsening: 25%
  NAS: mice improving 1-pt: 31.25%
  NAS: mice improving ≥2-pt: 0%
  NAS: mice improving, Total (≥1-pt): 31% and 31.25%
  NAS: mice with no change: 56.25%
  NAS: mice worsening ≥1-pt: 12.5%
DIO-GAN NASH mouse model; [8]
  Histological steatosis score: mice improving 1-pt: 40%
  Histological steatosis score: mice improving >2-pt: 6.7%
  Histological steatosis score: mice improving, Total (at least 1-pt): 47% and 46.7%
  Histological steatosis score: mice with no change: 53.33%
  Liver fibrosis stage: mice improving: 13.33%
  Liver fibrosis stage: mice with no change: 60%
  Liver fibrosis stage: mice worsening: 26.7%
  Lobular inflammation: mice improving: 6.7%
  Lobular inflammation: mice with no change: 73.3%
  Lobular inflammation: mice worsening: 20%
  NAS: mice improving 1-pt: 20%
  NAS: mice improving ≥2-pt: 7% and 6.7%
  NAS: mice improving, Total (≥1-pt): 27% and 26.7%
  NAS: mice with no change: 73.33%
  NAS: mice worsening ≥1-pt: 0%
DIO-GAN NASH mouse model; liver RNAseq, Compound 2-low (0.3 mg/kg)
  number of DEGs vs DIO-GAN vehicle control: 987

## Cn1cc(C(=O)O)c2ccc(N3CCC(OCc4c(-c5c(Cl)cccc5Cl)noc4C4CC4)CC3)cc21 [Compound 3]
[1]; [2]
  Mean trough analyte concentration (SD): 3.3 (1.8) ng/mL
[1]; [3]
  Mean trough analyte concentration (SD): 5.8 (3.5) ng/mL
[1]; group Compound 3 10 mg/kg (16)
  Mean trough analyte concentration (SD): 7.4 (3.8) ng/mL
DIO-GAN NASH mouse model; 12 wk PO QD
  Gal-3 expression in the liver (IHC) relative to DIO-GAN vehicle control: reduces expression of Galectin-3; also recorded: lower levels of Gal-3 expression
  body weight during the study: reduced body weight; also recorded: decreased body weight
  hepatomegaly (liver weight): significantly reduced hepatomegaly
  spleen weight: without changes in spleen weight
  total cholesterol (plasma): significantly reduced total cholesterol
  α-SMA (IHC), marker of hepatic stellate cell activation: Numeric reductions
DIO-GAN NASH mouse model; [4]
  Histological steatosis score: mice improving 1-pt: 81.25%
  Histological steatosis score: mice improving >2-pt: 0%
  Histological steatosis score: mice with no change: 18.75%
  Liver fibrosis stage: mice improving: 6.25%
  Liver fibrosis stage: mice with no change: 56.25%
  Liver fibrosis stage: mice worsening: 37.5%
  Lobular inflammation: mice improving: 0%
  Lobular inflammation: mice with no change: 68.75%
  Lobular inflammation: mice worsening: 31.25%
  plasma triglycerides: significantly reduced plasma triglycerides
DIO-GAN NASH mouse model; 12 wk PO QD, Compound 3 10 mg/kg, 10 mg/kg
  Histological steatosis score: mice improving, Total (at least 1-pt): 81% and 81.25%
DIO-GAN NASH mouse model; 12 wk PO QD, Compound 3 10 mg/kg, Combo = + Compound 2 0.3/2/10 mg/kg
  body weight at the end of study vs DIO-GAN vehicle control: significantly lower
DIO-GAN NASH mouse model; [9]
  NAS: mice improving ≥2-pt: 0%
  NAS: mice improving, Total (≥1-pt): 56%
DIO-GAN NASH mouse model; Week 11
  fat tissue mass (EchoMRI): significantly reduced fat tissue mass; also recorded: reduced levels of fat tissue
DIO-GAN NASH mouse model; liver RNAseq
  Scd1 expression: reduced
  expression of Col1a1, Acta2, Lgals3, CD146 relative to DIO-GAN vehicle control: significantly reduced expression
